In US4542169A, “Biomedical devices containing isothiazolones to control bacteria growth” (Rohm and Haas Company, priority 1983, dated 1985):
Converted amounts (≈) assume the structure as drawn. Values belong to the molecule of their own block, whether it stands above or below them.

Tests used:
[1] = tested on: Aerobasidium pullulans (A.p); assay: Zone of inhibition, polyvinyl chloride film; assay type: cell-based; conditions: PVC film
Solubility in H2O = assay type: physicochemical; conditions: water
Aspergillis niger (A.n.) [2] = assay: Growth of fungus on polyvinyl chloride film; assay type: cell-based; set-up: key: 0: zero (no growth); 5: five (heavy growth); conditions: PVC film
Method: (§1) In a two-liter, three-necked, round-bottom, flask equipped with a mechanical stirrer was placed 100 g of polyvinyl chloride, 590 g of reagent grade tetrahydrofuran, and 40.0 g of dioctylphthalate. This was stirred with gentle heating (35°-40° C.) for two hours to completely dissolve the polyvinyl chloride. Then, a barium/calcium salt of a fatty acid (3.5 g), a phosphite chelating agent (1.5 g), stearic Acid (0.25 g) and epoxidized soy bean oil (7.5 g), were mixed with 21 g of tetrahydrofuran and added to the polyvinyl chloride solution. After stirring at room temperature for 30 minutes, the solution was ready for use.
(§2) Films containing the isothiazolones were cast by first preparing a 0.5 weight percent polyvinyl chloride solution by adding the isothiazolone to the polyvinyl chloride solution. Then, portions of the 0.5% solution were diluted to 0.1 and 0.05%. The films were drawn down on 12"×12" glass plates using a 50 mil-3" wide coating bar and the films were allowed to air dry for 48 hours.
(§3) In addition to zones of inhibition, the films were observed by growth of fungus on the film and rated from zero (no growth) to five (heavy growth).

[3] = tested on: Aerobasidium pullulans (A.p); assay: Growth of fungus on polyvinyl chloride film; assay type: cell-based; set-up: key: 0: zero (no growth); 5: five (heavy growth); conditions: PVC film
Method: as §1, §2, §3

Aspergillis niger (A.n.) [4] = assay: Zone of inhibition, polyvinyl chloride film; assay type: cell-based; conditions: PVC film
Echerichia coli (E.c.) = assay: Zone of inhibition, polyvinyl chloride film discs on inoculated agar; assay type: cell-based; conditions: for Zone of Inhibition: PVC film; for Zones: PVC
Method: as §1, §2
(§4) The films were cut into 1.25 cm discs and placed in agar plates inoculated with Staphlococcus aureus (S.a) or Echerichia coli (E.c.).

[5] = tested on: Staphlococcus aureus (S.a); assay: as above; assay type: cell-based; conditions: for Zone of Inhibition: PVC film; for Zones: PVC
Method: as §1, §2, §4

P.a. = assay: Zone of inhibition, silicone film; assay type: cell-based, Pseudomonas aeruginosa
[6] = tested on: Pseudomonas aeruginosa (P.a.); assay: Zone of inhibition, polyvinyl chloride (vinyl) film discs; assay type: cell-based; conditions: PVC
Method: as §1, §4
Discs were tested against Pseudomonas aeruginosa (P.a.). The 1.0% films gave a slight zone of inhibition while the 5.0% film gave a 1 mm zone of inhibition.

E.c. = assay: Zone of inhibition, silicone rubber film discs on inoculated agar; assay type: cell-based, Echerichia coli; conditions: Silicone
Excerpt: as §4
(§5) The films were cut into discs and tested as in example one against S.a. and E.c.

S.a. = assay: as above; assay type: cell-based, Staphlococcus aureus; conditions: Silicone, S.a.
Excerpt: as §4, §5

Staphylococcus aureus = assay: Minimum inhibitory concentration, bacteriostatic activity; assay type: cell-based; conditions: Table III: Active Ingredient MIC
Candida albicans (yeast) = assay: Minimum inhibitory concentration, fungistatic activity; assay type: cell-based; conditions: Table III: Active Ingredient MIC
Aureobasidium pullulans = assay: as above; assay type: cell-based; conditions: Table III: Active Ingredient MIC
Aspergillus niger = assay: as above; assay type: cell-based; conditions: Table III: Active Ingredient MIC
Pseudomonas aeruginosa = assay: Minimum inhibitory concentration, bacteriostatic activity; assay type: cell-based; conditions: Table III: Active Ingredient MIC
Escherichia coli = assay: as above; assay type: cell-based; conditions: Table III: Active Ingredient MIC

Molecule: CCN1CCN(C(=O)N[C@@H](C(=O)N[C@@H]2C(=O)N3[C@@H]2SC(C)(C)[C@@H]3C(=O)O)c2ccccc2)C(=O)C1=O [P, Piperacillin Na, reference compound]
Zones (P.a.; 1.0%): 5.3 mm
Zones (P.a.; 5.0%): 13.3 mm
Zones (P.a.; .04%): 0 mm
Zones (P.a.; .20%): 0 mm
Zones ([6]; 1.0%): 0 mm
Zones ([6]; 5.0%): 9.8 mm
Zones ([6]; .04%): 0 mm
Zones ([6]; .20%): 0 mm
Zones (E.c.; 1.0%): 13.3 mm
Zones (E.c.; 5.0%): 17.3 mm
Zones (E.c.; .04%): 0 mm
Zones (E.c.; .20%): 0.8 mm
Zones (S.a.; 1.0%): 14.8 mm
Zones (S.a.; 5.0%): 21.3 mm
Zones (S.a.; .04%): 0 mm
Zones (S.a.; .20%): 0 mm
Zones (Echerichia coli (E.c.); 1.0%): 0 mm
Zones (Echerichia coli (E.c.); .04%): 0 mm
Zones (Echerichia coli (E.c.); .20%): 0 mm
Zones ([5]; 1.0%): slight
Zones ([5]; 5.0%): 13.8 mm
Zones ([5]; .04%): 0 mm
Zones ([5]; .20%): 0 mm

Molecule: O=c1cc(Cl)sn1Cc1ccc(Cl)cc1 [5-chloro-2-(p-chlorobenzyl)-4-isothiazolin-3-one]
MIC (Staphylococcus aureus): 4 µg/mL (≈ 15.4 µM)
MIC (Candida albicans (yeast)): 4 µg/mL (≈ 15.4 µM)
MIC (Aureobasidium pullulans): 8 µg/mL (≈ 30.8 µM)
MIC (Aspergillus niger): 4 µg/mL (≈ 15.4 µM)
MIC (Pseudomonas aeruginosa): 8 µg/mL (≈ 30.8 µM)
MIC (Escherichia coli): 8 µg/mL (≈ 30.8 µM)

Molecule: Gentamycin sulfate [reference compound]
Zones ([6]; 5.0%): 6.8 mm
Zones ([6]; .04%): 0 mm
Zones ([6]; .20%): 3.3 mm
Zones (Echerichia coli (E.c.); 5.0%): 9.3 mm
Zones (Echerichia coli (E.c.); .04%): 0 mm
Zones ([5]; .04%): slight

Further lines, with some results ahead:

solubility (Solubility in H2O): 143 µg/mL (≈ 563 µM)
Molecule: CCCCCCn1sc(Cl)c(Cl)c1=O [Compound 4, 4,5-Dichloro-N--n-hexyl-isothiazolin-3-one]
Zone of Inhibition ([1]; 0.05%): 0 mm
Zone of Inhibition ([1]; 0.1%): 0 mm
Zone of Inhibition ([1]; 0.5%): 2.8 mm
Growth on Film (Aspergillis niger (A.n.) [2]; 0.05%): 0
Growth on Film (Aspergillis niger (A.n.) [2]; 0.1%): 0
Growth on Film (Aspergillis niger (A.n.) [2]; 0.5%): 0
Growth on Film ([3]; 0.05%): 3
Growth on Film ([3]; 0.1%): 0
Growth on Film ([3]; 0.5%): 0
Zone of Inhibition (Aspergillis niger (A.n.) [4]; 0.05%): 0 mm
Zone of Inhibition (Aspergillis niger (A.n.) [4]; 0.1%): 0 mm
Zone of Inhibition (Aspergillis niger (A.n.) [4]; 0.5%): 3.8 mm
Zone of Inhibition (Echerichia coli (E.c.); 0.05%): 0 mm
Zone of Inhibition (Echerichia coli (E.c.); 0.1%): 0 mm
Zone of Inhibition (Echerichia coli (E.c.); 0.5%): 0.8 mm
Zone of Inhibition ([5]; 0.05%): 1.3 mm
Zone of Inhibition ([5]; 0.1%): 2.3 mm
Zone of Inhibition ([5]; 0.5%): 9.3 mm

solubility (Solubility in H2O): 195 µg/mL (≈ 750 µM)
Molecule: O=c1c(Cl)c(Cl)sn1Cc1ccccc1 [Compound 2, 4,5-Dichloro-N--benzyl-isothiazolin-3-one]
Zone of Inhibition ([1]; 0.05%): 0 mm
Zone of Inhibition ([1]; 0.1%): 0 mm
Zone of Inhibition ([1]; 0.5%): 4.8 mm
Growth on Film (Aspergillis niger (A.n.) [2]; 0.05%): 4
Growth on Film (Aspergillis niger (A.n.) [2]; 0.1%): 0
Growth on Film (Aspergillis niger (A.n.) [2]; 0.5%): 0
Growth on Film ([3]; 0.05%): 4
Growth on Film ([3]; 0.1%): 0
Growth on Film ([3]; 0.5%): 0
Zone of Inhibition (Aspergillis niger (A.n.) [4]; 0.05%): 0 mm
Zone of Inhibition (Aspergillis niger (A.n.) [4]; 0.1%): 0 mm
Zone of Inhibition (Aspergillis niger (A.n.) [4]; 0.5%): 4.3 mm
Zone of Inhibition (Echerichia coli (E.c.); 0.05%): 0 mm
Zone of Inhibition (Echerichia coli (E.c.); 0.1%): 0 mm
Zone of Inhibition (Echerichia coli (E.c.); 0.5%): 3.3 mm
Zone of Inhibition ([5]; 0.05%): 2.0 mm
Zone of Inhibition ([5]; 0.1%): 3.8 mm
